Reference: patent US11459339B2, “Biaryl derivative, preparation method thereof and pharmaceutical application thereof” (Abbisko Therapeutics Co., Ltd., priority 2018, dated 2022)

Tests used:
[1] = target: interaction between PD-1 and PD-L1 (Homo sapiens (Human), UniProt Q9NZQ7); test: PD1-PDL1 HTRF binding activity test (Cisbio PD-1/PD-L1 binding assay kit); settings: read-out: PD1-PDL1 HTRF Binding Activity IC50
[2] = target: interaction between PD-1 and PD-L1 expressed on cell surfaces (Homo sapiens (Human), UniProt Q9NZQ7); test: Jurkat reporter gene cellular assay (Jurkat/NF-κB-luc/PD1 cells cocultured with Raji-PD-L1 cells, OKT-3 stimulation); format: cell-based; settings: NF-κB-luc reporter activation fold, 6 hrs; read-out: Cell Activity EC50
Method in brief: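 EC50 comes from non-linear regression of activation fold (compound reading over DMSO reading) against concentration. Read-out was luciferase signal 6 h after OKT-3-stimulated coculture of PD-1/NF-κB-luc Jurkat cells with PD-L1-expressing Raji cells, 5*10^4 cells each per well.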

Chain of interaction between PD-1 and PD-L1 (Q9NZQ7 19-238): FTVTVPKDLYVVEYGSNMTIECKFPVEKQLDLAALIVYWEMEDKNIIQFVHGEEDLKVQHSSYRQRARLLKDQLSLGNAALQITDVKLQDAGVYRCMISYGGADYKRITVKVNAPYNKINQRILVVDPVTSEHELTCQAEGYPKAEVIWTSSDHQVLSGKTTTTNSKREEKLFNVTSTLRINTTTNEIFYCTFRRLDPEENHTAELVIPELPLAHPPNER
Chain of interaction between PD-1 and PD-L1 expressed on cell surfaces (Q9NZQ7 19-290): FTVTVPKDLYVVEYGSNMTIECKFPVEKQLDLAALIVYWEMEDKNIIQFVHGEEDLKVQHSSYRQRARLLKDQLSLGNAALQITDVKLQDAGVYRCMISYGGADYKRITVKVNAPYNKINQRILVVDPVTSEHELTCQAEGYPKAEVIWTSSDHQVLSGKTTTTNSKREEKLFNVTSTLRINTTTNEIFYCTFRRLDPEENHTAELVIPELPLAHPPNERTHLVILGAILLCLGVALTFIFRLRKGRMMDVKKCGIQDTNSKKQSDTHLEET

SMILES | IC50 [1] | EC50 [2]
COc1cc(C(=O)Nc2cccc(-c3cccc(NC(=O)c4cc(OC)c(CN[C@H](CO)CC(=O)O)cn4)c3C)c2C)ncc1CN[C@H](CO)CC(=O)O [Example 73, (3S,3′S)-3,3′-((((((2,2′-dimethyl-[1,1′-biphenyl]-3,3′-diyl)bis(azanediyl))bis(carbonyl))bis (4-methoxypyridine-6,3-diyl))bis (methylene))bis(azanediyl))bis(4-hydroxybutanoic acid)] | 0.29 nM | 812 nM
COc1cc(C(=O)Nc2cccc(-c3cccc(NC(=O)c4cc(OC)c(CN[C@H]5COC(=O)C5)cn4)c3C)c2C)ncc1CN[C@H]1COC(=O)C1 [Example 74] | 0.14 nM | 303 nM
COc1cc(C(=O)Nc2cccc(-c3cccc(NC(=O)c4cc(OC)c(CN[C@@H](CO)CC(=O)O)cn4)c3C)c2C)ncc1CN[C@@H](CO)CC(=O)O [Example 75] | 0.36 nM | 782 nM
COC[C@@H](NCc1cnc(C(=O)Nc2cccc(-c3cccc(NC(=O)c4cc(OC)c(CN[C@H](COC)C(=O)OC)cn4)c3C)c2C)cc1OC)C(=O)OC [Example 76, dimethyl 2,2′-((((((2,2′-dimethyl-[1,1′-biphenyl]-3,3′-diyl)bis(azanediyl))bis(carbonyl))bis (4-methoxypyridine-6,3-diyl))bis(methylene))bis(azanediyl))(2R,2′R)-bis(3-methoxypropanoate)] | 7.8 nM | 3060 nM
COC[C@@H](NCc1cnc(C(=O)Nc2cccc(-c3cccc(NC(=O)c4cc(OC)c(CN[C@H](COC)C(=O)O)cn4)c3C)c2C)cc1OC)C(=O)O [Example 77, (2R,2′R)-2,2′-((((((2,2′-dimethyl-[1,1′-biphenyl]-3,3′-diyl)bis(azanediyl))bis(carbonyl))bis(4-methoxypyridine-6,3-diyl))bis(methylene))bis (azanediyl))bis(3-methoxypropanoic acid)] | 0.41 nM | 297 nM
COC[C@H](NCc1cnc(C(=O)Nc2cccc(-c3cccc(NC(=O)c4cc(OC)c(CN[C@@H](COC)C(=O)OC)cn4)c3C)c2C)cc1OC)C(=O)OC [Example 78, dimethyl 2,2′-((((((2,2′-dimethyl-[1,1′-biphenyl]-3,3′-diyl)bis(azanediyl))bis(carbonyl))bis(4-methoxypyridine-6,3-diyl))bis(methylene))bis (azanediyl))(2S,2′S)-bis(3-methoxypropanoate)] | 10.9 nM | 2910 nM
COC[C@H](NCc1cnc(C(=O)Nc2cccc(-c3cccc(NC(=O)c4cc(OC)c(CN[C@@H](COC)C(=O)O)cn4)c3C)c2C)cc1OC)C(=O)O [Example 79, (2S,2′S)-2,2′-((((((2,2′-dimethyl-[1,1′-biphenyl]-3,3′-diyl)bis(azanediyl))bis(carbonyl))bis(4-methoxypyridine-6,3-diyl))bis(methylene))bis (azanediyl))bis(3-methoxypropanoic acid)] | 0.65 nM | 171 nM
COc1cc(C(=O)Nc2cccc(-c3cccc(NC(=O)c4cc(OC)c(CNCCS(C)(=O)=O)cn4)c3C)c2C)ncc1CNCCS(C)(=O)=O [Example 80, N,N'-(2,2′-dimethyl-[1,1′-biphenyl]-3,3′-diyl)bis(4-methoxy-5-(((2-(methylsulfonyl)ethyl)amino)methyl)picolinamide)] | 0.082 nM | 3740 nM
COc1cc(C(=O)Nc2cccc(-c3cccc(NC(=O)c4cc(OC)c(CNCC[S+](C)[O-])cn4)c3C)c2C)ncc1CNCC[S+](C)[O-] (centres unmarked) [Example 81, N,N'-(2,2′-dimethyl-[1,1′-biphenyl]-3,3′-diyl)bis(4-methoxy-5-(((2-(methylsulfinyl)ethyl)amino)methyl)picolinamide)] | 0.43 nM | 900 nM
COC(=O)[C@H]1CCN(Cc2cnc(C(=O)Nc3cccc(-c4cccc(NC(=O)c5cc(OC)c(CN6CC[C@H](C(=O)OC)C6)cn5)c4C)c3C)cc2OC)C1 [Example 82, dimethyl 1,1′-(((((2,2′-dimethyl-[1,1-biphenyl]-3,3′-diyl)bis(azanediyl))bis(carbonyl))bis(4-methoxypyridine-6,3-diyl))bis(methylene))(3S,3′S)-bis(pyrrolidine-3-carboxylate)] | 1.9 nM | 566 nM
COc1cc(C(=O)Nc2cccc(-c3cccc(NC(=O)c4cc(OC)c(CN5CC[C@H](C(=O)O)C5)cn4)c3C)c2C)ncc1CN1CC[C@H](C(=O)O)C1 [Example 83, (3S,3′S)-1,1′-(((((2,2′-dimethyl-[1,1′-biphenyl]-3,3′-diyl)bis(azanediyl))bis(carbonyl))bis(4-methoxypyridine-6,3-diyl))bis(methylene))bis (pyrroidine-3-carboxylic acid)] | 1.04 nM | 309 nM
COC(=O)C1CCN(Cc2cnc(C(=O)Nc3cccc(-c4cccc(NC(=O)c5cc(OC)c(CN6CCC(C(=O)OC)CC6)cn5)c4C)c3C)cc2OC)CC1 [Example 84, dimethyl 1,1′-(((((2,2′-dimethyl-[1,1′-biphenyl]-3,3′-diyl)bis(azanediyl))bis(carbonyl))bis(4-methoxypyridine-6,3-diyl))bis(methylene))bis(piperidine-4-carboxylate)] | 1.36 nM | 603 nM
COc1cc(C(=O)Nc2cccc(-c3cccc(NC(=O)c4cc(OC)c(CN5CCC(C(=O)O)CC5)cn4)c3C)c2C)ncc1CN1CCC(C(=O)O)CC1 [Example 85, 1,1′-(((((2,2′-dimethyl-[1,1′-biphenyl]-3,3′-diyl)bis(azanediyl))bis(carbonyl))bis (4-methoxypyridine-6,3-diyl))bis(methylene))bis (piperidine-4-carboxylic acid)] | 0.45 nM | 341 nM
COc1cc(C(=O)Nc2cccc(-c3cccc(NC(=O)c4cc(OC)c(CN[C@H](CO)C(N)=O)cn4)c3C)c2C)ncc1CN[C@H](CO)C(N)=O [Example 86, N,N′-(2,2′-dimethyl-[1,1′-biphenyl]-3,3′-diyl)bis(5-((((R)-1-amino-3-hydroxy-1-oxopropan-2-yl)amino)methyl)-4-methoxypicolinamide)] | 1.34 nM | 406 nM
CCNC(=O)[C@@H](CO)NCc1cnc(C(=O)Nc2cccc(-c3cccc(NC(=O)c4cc(OC)c(CN[C@H](CO)C(=O)NCC)cn4)c3C)c2C)cc1OC [Example 87] | 1.08 nM | 800 nM
COc1cc(C(=O)Nc2cccc(-c3cccc(NC(=O)c4cc(OC)c(CNCCS(C)(=N)=O)cn4)c3C)c2C)ncc1CNCCS(C)(=N)=O (centres unmarked) [Example 88, N,N'-(2,2′-dimethyl-[1,1′-biphenyl]-3,3′-diyl)bis(4-methoxy-5-(((2-(S-methylsulfonimidoyl)ethyl)amino)methyl)picolinamide)] | 0.41 nM | 182 nM

Now from value to compound:

IC50 [1] | EC50 [2] | SMILES
0.87 nM | 427 nM | COc1cc(C(=O)Nc2cccc(-c3cccc(NC(=O)c4cc(OC)c(CNCCN=S(C)(C)=O)cn4)c3C)c2C)ncc1CNCCN=S(C)(C)=O [Example 89, N,N'-(2,2′-dimethyl-[1,1′-biphenyl]-3,3′-diyl)bis(5-(((2-((dimethyl(oxo)λ^6-sulfaneylidene)amino)ethyl)amino)methyl)-4-methoxypicolinamide)]
0.36 nM | 131 nM | COc1cc(C(=O)Nc2cccc(-c3cccc(NC(=O)c4cc(OC)c(CNCCN=S5(=O)CCCC5)cn4)c3C)c2C)ncc1CNCCN=S1(=O)CCCC1 [Example 90, N,N'-(2,2′-dimethyl-[1,1′-biphenyl]-3,3′-diyl)bis(4-methoxy-5-(((2-((1-oxidotetrahydro-1λ^6-thiophen-1-ylidene)amino)ethyl)amino)methyl)picolinamide)]
0.16 nM | 39 nM | Cc1c(NC(=O)c2cc(C3CC3)c(CNCCO)cn2)cccc1-c1cccc(NC(=O)c2cc(C3CC3)c(CNCCO)cn2)c1C [Example 91, N,N'-(2,2′-dimethyl-[1,1′-biphenyl]-3,3′-diyl)bis(4-cyclopropyl-5-(((2-hydroxyethyl)amino)methyl)picolinamide)]
0.87 nM | 54.7 nM | Cc1c(NC(=O)c2cc(C3CC3)c(CNC(CO)CO)cn2)cccc1-c1cccc(NC(=O)c2cc(C3CC3)c(CNC(CO)CO)cn2)c1C [Example 92, N,N′-(2,2′-dimethyl-[1,1′-biphenyl]-3,3′-diyl)bis(4-cyclopropyl-5-(((1,3-dihydroxypropan-2-yl)amino)methyl)picolinamide)]
1.49 nM | 104 nM | CC(=O)NCCNCc1cnc(C(=O)Nc2cccc(-c3cccc(NC(=O)c4cc(C5CC5)c(CNCCNC(C)=O)cn4)c3C)c2C)cc1C1CC1 [Example 93, N,N'-(2,2′-dimethyl-[1,1′-biphenyl]-3,3′-diyl)bis(5-(((2-acetamidoethyl)amino)methyl)-4-cyclopropylpicolinamide)]
4.75 nM | 566 nM | Cc1c(NC(=O)c2cc(C3CC3)c(CNCC3(O)CC3)cn2)cccc1-c1cccc(NC(=O)c2cc(C3CC3)c(CNCC3(O)CC3)cn2)c1C [Example 94, N,N'-(2,2′-dimethyl-[1,1′-biphenyl]-3,3′-diyl)bis(4-cyclopropyl-5-((((1-hydroxycyclopropyl)methyl)amino)methyl)picolinamide)]
2.02 nM | 125 nM | Cc1c(NC(=O)c2cc(C3CC3)c(CN[C@H](C)CO)cn2)cccc1-c1cccc(NC(=O)c2cc(C3CC3)c(CN[C@H](C)CO)cn2)c1C [Example 95, N,N'-(2,2′-dimethyl-[1,1′-biphenyl]-3,3′-diyl)bis(4-cyclopropyl-5-((((R)-1-hydroxypropan-2-yl)amino)methyl)picolinamide)]
1.44 nM | 87 nM | Cc1c(NC(=O)c2cc(C3CC3)c(CN[C@@H](C)CO)cn2)cccc1-c1cccc(NC(=O)c2cc(C3CC3)c(CN[C@@H](C)CO)cn2)c1C [Example 96, N,N'-(2,2′-dimethyl-[1,1′-biphenyl]-3,3′-diyl)bis(4-cyclopropyl-5-((((S)-1-hydroxypropan-2-yl)amino)methyl)picolinamide)]
3.38 nM | 221 nM | Cc1c(NC(=O)c2cc(C3CC3)c(CNC3CCC[C@@H]3O)cn2)cccc1-c1cccc(NC(=O)c2cc(C3CC3)c(CN[C@H]3CCC[C@@H]3O)cn2)c1C (some centres unmarked) [Example 97]
